Experimental data as given in US8273769B2, “Phenoxy acetic acid derivatives” (Merck Serono SA, priority 2009, dated 2012).

How the values were obtained:
CRTH2 [1] = target: T1, CRTH2 (Homo sapiens, UniProt Q9Y5Y4); test: Radioligand binding Scintillation Proximity Assay ([3H]PGD2, hCRTH2-CHO cell membranes); parameters: host or cells: CHO cells; conditions: 1.5 nM [3H]PGD2, hCRTH2-CHO cell membranes, SPA
T1 sequence (Q9Y5Y4 1-395): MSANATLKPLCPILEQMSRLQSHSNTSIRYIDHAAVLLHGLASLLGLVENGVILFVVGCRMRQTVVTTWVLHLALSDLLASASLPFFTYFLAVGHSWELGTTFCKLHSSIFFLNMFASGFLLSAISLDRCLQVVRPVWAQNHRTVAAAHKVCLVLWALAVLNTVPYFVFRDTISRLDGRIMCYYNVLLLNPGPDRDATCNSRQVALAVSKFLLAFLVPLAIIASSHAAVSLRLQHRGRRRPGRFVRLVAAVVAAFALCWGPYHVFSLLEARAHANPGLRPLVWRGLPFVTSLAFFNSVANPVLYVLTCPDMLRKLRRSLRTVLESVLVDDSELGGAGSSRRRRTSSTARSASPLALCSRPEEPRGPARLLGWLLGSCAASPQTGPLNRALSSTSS
Procedure, shortened: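 SPA competition binding at room temperature, 90 min with agitation: 1.5 nM [3H]PGD2, 10-50 μg/ml hCRTH2-CHO membrane protein, WGA SPA beads, HEPES pH 7.4 with 10 mM MnCl2, 1% DMSO. Non-specific binding defined with 10 μM PGD2; scintillation counting.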

CRTH2 [2] = target: T1, CRTH2; test: [35S]GTPγS binding assay (CHO-CRTH2 cell membranes); assay type: biochemical; parameters: expressed in transfected cells; host or cells: CHO-CRTH2 cells; conditions: for Emax: inverse agonists, 100% of Emax = activity with 1 μM PGD2; for IC50: antagonist mode, fixed concentration of PGD2 (EC80)
Experimental: Adherent CHO cells expressing hCRTH2 (Euroscreen, Belgium) were cultured in 225 cm^2 cell culture flasks (Corning, USA) in 30 ml of medium. After two rinses of phosphate buffered saline (PBS), cells were harvested in 10 ml of PBS containing 1 mM EDTA, centrifuged at 500×g for 5 min at 4° C. and frozen at −80° C. The pellet was re-suspended in 50 mM Tris-HCl, pH 7.4, 2 mM EDTA, 250 mM Sucrose, containing protease inhibitor cocktail tablets, (Complete EDTA-free, Roche, Germany) and incubated 30 min at 4° C. Cells were disrupted by nitrogen cavitation (Parr Instruments, USA) at 4° C. (800 p.s.i. for 30 min), and centrifuged at 500×g for 10 min at 4° C. Pellet containing nuclei and cellular debris was discarded and supernatant was centrifuged 60 min at 4° C. at 45000×g. Membrane pellet was re-suspended in storage buffer (10 mM HEPES/KOH pH 7.4, 1 mM EDTA, 250 mM sucrose, protease inhibitor cocktail tablets) using Dounce homogenization and frozen in liquid nitrogen, and stored at −80° C.
The [^35S]GTPγS assay measures the increase in guanine nucleotide exchange at G-proteins in cell membranes, resulting from agonist (PGD2) binding to CRTH2. This process can be monitored in vitro by incubating cell membranes containing G-proteins and CRTH2 with GDP and [^35S]GTPγS, a radiolabeled, hydrolysis-resistant analogue of GTP (see, Harrison et al., Life Sciences 74, 489-508, 2003). The addition of a Compounds of Formula (I) results in binding to CRTH2 and thus in an inhibition of agonist binding, which can be monitored as inhibition of the stimulation of GTP/GDP exchange.
Briefly, Compounds of Formula (I) are incubated in 96-well scintillating white polystyrene plates (Perkin Elmer, USA) in a final volume of 200 μl containing 20 mM HEPES/KOH pH 7.4, 3 mM MgCl2, 10 μg/ml Saponin, 5 μM GDP, 75 mM NaCl and 2% of dimethylsulphoxide (DMSO). Reaction is triggered by the addition of 5-10 μg of CHO-CRTH2 cell membranes and 0.15 nM [^35S]GTPγS. After 60 min incubation at 30° C., reaction is stopped by centrifugation at 700×g, at 4° C. for 10 minutes and supernatant is removed. The radioactivity coming from the [^35S]GTPγS bound on centrifuged cell membranes is recorded using a 1450 Micro-beta scintillation counter. For IC50 determination, increasing concentrations of compounds are incubated in presence of a fixed concentration of PGD2 (EC80). For EC50 measurements, compounds are incubated without addition of PGD2. Basal [^35S]GTPγS activity is determined without addition of any ligands or compounds. 100% [^35S]GTPγS activity is measured by the addition of 1 μM of PGD2.

[3] = test system: FITC induced contact hypersensitivity in mice; test: FITC 1 week model (FITC induced contact hypersensitivity, ear swelling); assay type: in vivo, Balb/C mice; conditions: oral gavage, 24 h after challenge
Text: Fluorescein isothiocyanate (FITC) induced contact hypersensitivity (CHS) is a commonly used model for atopic dermatitis (AD). The hapten FITC is a small molecule that is able to elicit an immune response only when attached to a larger carrier such as a protein. It is reactive towards e-amino groups (lysine). The immune response to FITC sensitization and challenge is Th2 cytokine driven (IL-4, IL-5, IL-6, IL-10 and IL-13) and associated with elevated serum IgE levels. The skin inflammation at the site of the challenge is characterized by edema and eosinophil infiltrations.
Female 9 week old Balb/C mice were sensitized on days 0 and 1 with 0.5% FITC in acetone/dibuthylphtalate (A/DBP). One group (sham) was sensitized with A/DBP alone. On day 6 all the mice including the sham group were challenged on the right ear (inner and outer surface) with 0.5% FITC in A/DBP. The mice were treated with the compounds via oral gavage 1 h before and 7 h after the challenge. The baseline ear thickness was measured before the challenge and 24 h after the challenge. At the end of the experiment (24 h after the challenge) the mice were sacrificed. Serum and plasma samples were taken. The challenged ear was excised and stored at −80° C. Compounds of Formula (I) of the present invention were tested at 3, 10 and 30 mg/Kg.

Row | IC50 (CRTH2 [1]) | Emax (CRTH2 [2]) | IC50 (CRTH2 [2]) | SMILES | % inhibition of ear swelling (mean ± s.e.m.) ([3]; dose 3 mg/kg) | % inhibition of ear swelling (mean ± s.e.m.) ([3]; dose 10 mg/kg) | % inhibition of ear swelling (mean ± s.e.m.) ([3]; dose 30 mg/kg)
1 | 10 nM | – | – | CCCS(=O)(=O)c1cccc(C#Cc2cc(Cl)ccc2OCC(=O)O)c1 [Example 17, (4-chloro-2-{[3-(propylsulfonyl)phenyl]ethynyl}phenoxy)acetic acid] | – | – | –
2 | 14 nM | -17% | – | O=C(O)COc1ccc(Cl)cc1C#Cc1ccc2c(c1)S(=O)(=O)c1ccccc1-2 [Example 154, {4-chloro-2-[(5,5-dioxidodibenzo[b,d]thien-3-yl)ethynyl]phenoxy}acetic acid] | 41 ± 9% | 49 ± 9% | 54 ± 17%
3 | 6 nM | – | – | CCCS(=O)(=O)c1ccc(F)c(C#Cc2cc(Cl)ccc2OCC(=O)O)c1 [Example 89, (4-chloro-2-{[2-fluoro-5-(propylsulfonyl)phenyl]ethynyl}phenoxy)acetic acid] | 36 ± 19% | 54 ± 16% | 48 ± 11%
4 | 5 nM | – | 4 nM | CC(C)S(=O)(=O)c1ccc(F)c(C#Cc2cc(Cl)ccc2OCC(=O)O)c1 [Example 102, (4-chloro-2-{[2-fluoro-5-(isopropylsulfonyl)phenyl]ethynyl}phenoxy)acetic acid] | – | – | –
5 | 55 nM | – | 126 nM | CN(C)S(=O)(=O)c1cncc(C#Cc2cc(Cl)ccc2OCC(=O)O)c1 [Example 35, [4-chloro-2-({5-[(dimethylamino)sulfonyl]pyridin-3-yl}ethynyl)phenoxy]acetic acid] | – | – | –
6 | 5 nM | – | 6 nM | CCCS(=O)(=O)c1ccc(C)c(C#Cc2cc(Cl)ccc2OCC(=O)O)c1 [Example 38, (4-chloro-2-{[2-methyl-5-(propylsulfonyl)phenyl]ethynyl}phenoxy)acetic acid] | 23 ± 16% | 56 ± 12% | 52 ± 12%
7 | 3 nM | – | – | CCCS(=O)(=O)c1ccc(Cl)c(C#Cc2cc(Cl)ccc2OCC(=O)O)c1 [Example 101, (4-chloro-2-{[2-chloro-5-(propylsulfonyl)phenyl]ethynyl}phenoxy)acetic acid] | – | – | –
8 | 4 nM | – | – | CC(C)S(=O)(=O)c1ccc(Cl)c(C#Cc2cc(Cl)ccc2OCC(=O)O)c1 [Example 103, (4-chloro-2-{[2-chloro-5-(isopropylsulfonyl)phenyl]ethynyl}phenoxy)acetic acid] | – | – | –
9 | 4 nM | -13% | – | CN(C)S(=O)(=O)c1ccc(F)c(C#Cc2cc(Cl)ccc2OCC(=O)O)c1 [Example 107, [4-chloro-2-({5-[(dimethylamino)sulfonyl]-2-fluorophenyl}ethynyl)phenoxy]acetic acid] | – | – | –
